The source of these data is patent publication US10183944B2 (Asana Biosciences, LLC, priority 2011, dated 2019).

For assay [1], the target named is Syk (356-635 amino acids) catalytic domain (Homo sapiens (Human), UniProt P43405). Briefly: Inhibition of enzymatic Syk kinase activity (radiometric). The class given is biochemical. To be noted: read-out: IC50 Syk. The essentials:
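Human Syk (356-635) kinase domain (0.035–7.5 ng/reaction) preincubated with compound 30 minutes at room temperature, then reacted with pG4T substrate, 100 μM ATP (stock) and γ-32P-ATP for 10 minutes at 30° C. Reaction stopped with HCl/ATP, spotted on P81 paper, washed and counted by scintillation. Percent inhibition versus no-compound counts.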

The next assay addresses JAK2 (Homo sapiens (Human), UniProt O60674). As to the kind of experiment: Inhibition of enzymatic JAK2 kinase activity (TR-FRET). To be noted: read-out: IC50 JAK. The class given is biochemical. A digest of the protocol:
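Enzyme preincubated with compound 30 min at RT, then Ulight-poly-GT substrate and ATP added for 60 min at RT. EDTA stop, Eu-antiphosphotyrosine antibody; TR-FRET ratio 665/615 nm (ex 340 nm), blank-corrected; % inhibition versus positive control.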
For orientation: TR-FRET usually uses a lanthanide donor and a delayed reading to cut background.

JAK2, sequence (O60674 808-1132): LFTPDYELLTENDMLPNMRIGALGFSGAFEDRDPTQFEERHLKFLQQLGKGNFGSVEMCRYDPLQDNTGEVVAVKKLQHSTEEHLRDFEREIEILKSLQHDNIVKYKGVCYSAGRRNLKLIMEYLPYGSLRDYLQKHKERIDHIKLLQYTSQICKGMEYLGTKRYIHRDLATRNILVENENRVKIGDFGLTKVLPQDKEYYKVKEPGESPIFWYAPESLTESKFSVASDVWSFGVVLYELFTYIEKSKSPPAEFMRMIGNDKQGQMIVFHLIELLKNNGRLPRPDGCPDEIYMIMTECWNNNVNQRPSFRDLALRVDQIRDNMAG

`N#CCC(=O)N1CCN(c2ccc(Nc3nc(N4CCCCCC4)nc4cn[nH]c(=O)c34)cn2)CC1` [Example 234, 3-(4-(5-((2-(azepan-1-yl)-5-oxo-5,6-dihydropyrimido[4,5-d]pyridazin-4-yl)amino)pyridin-2-yl)piperazin-1-yl)-3-oxopropanenitrile]: the figures for the IC50 (in assay [1]; at JAK2) were below 50 nM and below 10 nM, respectively.
On the same counts, the results for `O=C(O)Cn1nnc(-c2ccc(Nc3nc(N4CCCCCC4)nc4cn[nH]c(=O)c34)cc2)n1` [Example 235, 2-(5-(4-((2-(azepan-1-yl)-5-oxo-5,6-dihydropyrimido[4,5-d]pyridazin-4-yl)amino)phenyl)-2H-tetrazol-2-yl)acetic acid] are below 50 nM and below 50 nM.
Turning to `O=c1[nH]ncc2nc(N3CCCCCC3)nc(Nc3ccc(N4CCC(CCO)CC4)nc3)c12` [Example 236, 2-(azepan-1-yl)-4-((6-(4-(2-hydroxyethyl)piperidin-1-yl)pyridin-3-yl)amino) pyrimido[4,5-d]pyridazin-5(6H)-one], the figures for the 50% inhibitory concentration (IC50) (in assay [1]; on JAK2) were below 100 nM and below 50 nM, respectively.
In the same order, the values of `N#CCC(=O)N1CCN(c2ccc(Nc3nc(N4CCC(CC#N)CC4)nc4cn[nH]c(=O)c34)cn2)CC1` [Example 237, 3-(4-(5-((2-(4-(cyanomethyl)piperidin-1-yl)-5-oxo-5,6-dihydropyrimido[4,5-d]pyridazin-4-yl)amino)pyridin-2-yl)piperazin-1-yl)-3-oxopropanenitrile] are below 50 nM and below 10 nM.
For `CC(C)(O)C(=O)N1CCN(c2ccc(Nc3nc(N4CCCCCC4)nc4cn[nH]c(=O)c34)cn2)CC1` [Example 238, 2-(azepan-1-yl)-4-((6-(4-(2-hydroxy-2-methylpropanoyl)piperazin-1-yl)pyridin-3-yl)amino)pyrimido[4,5-d]pyridazin-5(6H)-one], the values for the IC50 (in assay [1]; on JAK2) were below 50 nM and below 10 nM, respectively.
Take `O=c1[nH]ncc2nc(N3CCCCCC3)nc(Nc3ccc(OCCN4CCN(CCO)CC4)cc3)c12` [Example 239, 2-(azepan-1-yl)-4-((4-(2-(4-(2-hydroxyethyl)piperazin-1-yl)ethoxy)phenyl)amino)pyrimido[4,5-d]pyridazin-5(6H)-one]: the IC50 in assay [1] was below 100 nM; at JAK2 it was below 50 nM.
Consider `N#CCC(=O)N1CCN(c2ccc(Nc3nc(N4CCC(CC#N)CC4)nc4cn[nH]c(=O)c34)cc2)CC1` [Example 240, 3-(4-(4-((2-(4-(cyanomethyl)piperidin-1-yl)-5-oxo-5,6-dihydropyrimido[4,5-d]pyridazin-4-yl)amino)phenyl)piperazin-1-yl)-3-oxopropanenitrile], for which the half-inhibitory concentration (IC50) in assay [1] was below 50 nM; on JAK2, below 10 nM.
Consider `CN1CCN(c2ccc(Nc3nc(N4CCCCCC4)nc4cn[nH]c(=O)c34)cn2)CC1` [Example 242, 2-(azepan-1-yl)-4-((6-(4-methylpiperazin-1-yl)pyridin-3-yl)amino)pyrimido[4,5-d]pyridazin-5(6H)-one], for which the concentration for half-maximal inhibition (IC50) (in assay [1]; at JAK2) was below 50 nM in each case.
Regarding `CN1CCN(c2ccc(Nc3nc(N4CCC(CC#N)CC4)nc4cn[nH]c(=O)c34)cn2)CC1` [Example 243, 2-(1-(4-((6-(4-methylpiperazin-1-yl)pyridin-3-yl)amino)-5-oxo-5,6-dihydropyrimido[4,5-d]pyridazin-2-yl)piperidin-4-yl)acetonitrile], the half-inhibitory concentration (IC50) (in assay [1]; at JAK2) was below 50 nM in each case.
`N#CCC1CCN(c2nc(Nc3ccc(-c4nn[nH]n4)cc3)c3c(=O)[nH]ncc3n2)CC1` [Example 245, 2-(1-(4-((4-(2H-tetrazol-5-yl)phenyl)amino)-5-oxo-5,6-dihydropyrimido[4,5-d]pyridazin-2-yl)piperidin-4-yl)acetonitrile]: the IC50 (in assay [1]; at JAK2) was below 50 nM each time.
In the case of `N#CCC1CCN(c2nc(Nc3ccc(N4CCC(Cc5nn[nH]n5)CC4)cc3)c3c(=O)[nH]ncc3n2)CC1` [Example 246, 2-(1-(4-((4-(4-((2H-tetrazol-5-yl)methyl)piperidin-1-yl)phenyl)amino)-5-oxo-5,6-dihydropyrimido[4,5-d]pyridazin-2-yl)piperidin-4-yl)acetonitrile], the IC50 (in assay [1]; on JAK2) was below 10 nM each time.
As for `CN1CCN(c2ccc(Nc3nc(N4CCCCCC4)nc4cn[nH]c(=O)c34)cc2)CC1` [Example 247, 2-(azepan-1-yl)-4-((4-(4-methylpiperazin-1-yl)phenyl)amino)pyrimido[4,5-d]pyridazin-5(6H)-one], the IC50 (in assay [1]; on JAK2) was below 10 nM each time.
Consider `N#CCC1CCN(c2nc(Nc3ccc(N4CCCC(CC(=O)O)C4)cc3)c3c(=O)[nH]ncc3n2)CC1` (stereo not shown) [Example 250, 2-(1-(4-((2-(4-(cyanomethyl)piperidin-1-yl)-5-oxo-5,6-dihydropyrimido[4,5-d]pyridazin-4-yl)amino)phenyl)piperidin-3-yl)acetic acid], for which the half-maximal inhibitory concentration (IC50) was below 50 nM in assay [1] and below 10 nM on JAK2.
In the same order, the values of `O=c1[nH]ncc2nc(N3CCCCCC3)nc(Nc3ccc(N4CCC(Cc5nn[nH]n5)CC4)nc3)c12` [Example 252, 4-((6-(4-((2H-tetrazol-5-yl)methyl)piperidin-1-yl)pyridin-3-yl)amino)-2-(azepan-1-yl)pyrimido[4,5-d]pyridazin-5(6H)-one] are below 50 nM and below 10 nM.
On the same counts, the results for `N#CCC1CCN(c2nc(Nc3ccc(N4CCC(Cc5nn[nH]n5)CC4)nc3)c3c(=O)[nH]ncc3n2)CC1` [Example 253, 2-(1-(4-((6-(4-((2H-tetrazol-5-yl)methyl)piperidin-1-yl)pyridin-3-yl)amino)-5-oxo-5,6-dihydropyrimido[4,5-d]pyridazin-2-yl)piperidin-4-yl) acetonitrile] are below 50 nM and below 10 nM.
Consider `COCCN1CCN(c2ccc(Nc3nc(N4CCCCCC4)nc4cn[nH]c(=O)c34)cc2)CC1` [Example 255, 2-(azepan-1-yl)-4-((4-(4-(2-methoxyethyl)piperazin-1-yl)phenyl)amino) pyrimido[4,5-d]pyridazin-5(6H)-one], for which the IC50 in assay [1] was below 50 nM; on JAK2, below 10 nM.
On the same counts, the results for `O=c1[nH]ncc2nc(N3CCCCCC3)nc(Nc3ccc(N4CCN(CCCO)CC4)cc3)c12` [Example 260, 2-(azepan-1-yl)-4-((4-(4-(3-hydroxypropyl)piperazin-1-yl)phenyl)amino)pyrimido[4,5-d]pyridazin-5(6H)-one] are below 50 nM and below 50 nM.
In the same order, the values of `N#CCC1CCN(c2nc(Nc3ccc(OC4CCN(CC(=O)O)CC4)cc3)c3c(=O)[nH]ncc3n2)CC1` [Example 262, 2-(4-(4-((2-(4-(cyanomethyl)piperidin-1-yl)-5-oxo-5,6-dihydropyrimido[4,5-d]pyridazin-4-yl)amino)phenoxy)piperidin-1-yl)acetic acid] are below 50 nM and below 10 nM.
On to `O=c1[nH]ncc2nc(N3CCCCCC3)nc(Nc3ccc(N4CCCN(CCO)CC4)cc3)c12` [Example 263, 2-(azepan-1-yl)-4-((4-(4-(2-hydroxyethyl)-1,4-diazepan-1-yl)phenyl)amino) pyrimido[4,5-d]pyridazin-5(6H)-one], for which the concentration for half-maximal inhibition (IC50) (in assay [1]; at JAK2) was below 10 nM each time.
`CCN1CCN(C(=O)COc2ccc(Nc3nc(N4CCCCCC4)nc4cn[nH]c(=O)c34)cc2)CC1` [Example 269, 2-(azepan-1-yl)-4-((4-(2-(4-ethylpiperazin-1-yl)-2-oxoethoxy)phenyl)amino)pyrimido[4,5-d]pyridazin-5(6H)-one]: the IC50 (in assay [1]; at JAK2) was below 50 nM in each case.
With `CCN1CCN(C(=O)COc2ccc(Nc3nc(N4CCC(CC#N)CC4)nc4cn[nH]c(=O)c34)cc2)CC1` [Example 270, 2-(1-(4-((4-(2-(4-ethylpiperazin-1-yl)-2-oxoethoxy)phenyl)amino)-5-oxo-5,6-dihydropyrimido[4,5-d]pyridazin-2-yl)piperidin-4-yl)acetonitrile], the half-maximal inhibitory concentration (IC50) (in assay [1]; at JAK2) was below 50 nM throughout.
`CN1CCN(C(=O)COc2ccc(Nc3nc(N4CCC(CC#N)CC4)nc4cn[nH]c(=O)c34)cc2)CC1` [Example 271, 2-(1-(4-((4-(2-(4-methylpiperazin-1-yl)-2-oxoethoxy)phenyl)amino)-5-oxo-5,6-dihydropyrimido[4,5-d]pyridazin-2-yl)piperidin-4-yl)acetonitrile]: the IC50 in assay [1] is below 10 nM; at JAK2, below 50 nM.
Take `O=c1[nH]ncc2nc(N3CCCCCC3)nc(Nc3ccc(N4CCCC(CCO)C4)cc3)c12` (stereo not shown) [Example 272, 2-(azepan-1-yl)-4-((4-(3-(2-hydroxyethyl)piperidin-1-yl)phenyl)amino) pyrimido[4,5-d]pyridazin-5(6H)-one]: the results for the IC50 (in assay [1]; on JAK2) were below 50 nM and below 10 nM, respectively.
Take `O=c1[nH]ncc2nc(N3CCCCCC3)nc(Nc3ccc(N4CCCC(O)C4)cc3)c12` (stereo not shown) [Example 281, 2-(azepan-1-yl)-4-((4-(3-hydroxypiperidin-1-yl)phenyl)amino) pyrimido[4,5-d]pyridazin-5(6H)-one]: the results for the IC50 (in assay [1]; at JAK2) were below 50 nM and below 10 nM, respectively.
With `N#CCC1CCN(c2nc(Nc3ccc(N4CCCC(O)C4)cc3)c3c(=O)[nH]ncc3n2)CC1` (stereo not shown) [Example 282, 2-(1-(4-((4-(3-hydroxypiperidin-1-yl)phenyl)amino)-5-oxo-5,6-dihydropyrimido[4,5-d]pyridazin-2-yl)piperidin-4-yl)acetonitrile], the 50% inhibitory concentration (IC50) in assay [1] is below 50 nM; on JAK2, below 10 nM.
In the same order, the values of `O=c1[nH]ncc2nc(N3CCCCCC3)nc(Nc3ccc(N4CCCC(CO)C4)cc3)c12` (stereo not shown) [Example 285, 2-(azepan-1-yl)-4-((4-(3-(hydroxymethyl)piperidin-1-yl)phenyl)amino) pyrimido[4,5-d]pyridazin-5(6H)-one] are below 50 nM and below 50 nM.

What is called IC50 is the midpoint of a concentration-inhibition curve.
